Patent US9061984B2 (University of Louisville Research Foundation, Inc., priority 2008, dated 2015)
pIC50: −log10 of the molar value. Converted amounts (≈) assume the structure as drawn. Like-named read-outs stand apart in the source and are kept apart here.

Tests used:
peritoneal macrophages = assay: Toxicity to peritoneal macrophages (Trypan Blue count); assay type: cell-based, BALB/C mouse
M. tuberculosis H37Rv = assay: Conventional aerobic (MABA) culture assay, luminescence MIC; assay type: cell-based, Mycobacterium tuberculosis
[1] = test system: axenic amastigotes of L. amazonensis (strain MHOM/BR/76/LTB-012); conditions: Table 8b; for pIC50: read-out: L. amazonensis IC50
3T3 cells = assay: Cell growth inhibition bioassay (sulforhodamine B); assay type: cell-based, mouse; conditions: 48 h, SRB
How it was run: (§1)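 Cells were exposed to compound alongside matched solvent controls, then stained with sulforhodamine B. Percent growth inhibition was calculated from dye absorbance against the control.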

VERO cell = assay: Cytotoxicity VERO cell (Table 6); conditions: Table 6
VERO cells [2] = assay: Cell growth inhibition bioassay (sulforhodamine B); assay type: cell-based, African Green Monkey; conditions: 48 h, SRB
How it was run: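 Cytotoxicity is read by sulforhodamine B colorimetry following the Skehan protocol; values are growth inhibition relative to solvent-only wells.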

MCF-7 cells = assay: Cell growth inhibition bioassay (sulforhodamine B); assay type: cell-based, human; conditions: 48 h, SRB
How it was run: (§2)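 Human cancer cells (MCF-7 breast, DU145 and PC3 prostate, H460 large cell lung) were treated with compounds. Growth relative to solvent control was quantified by SRB protein stain.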

H460 cells = assay: Cell growth inhibition bioassay (sulforhodamine B); assay type: cell-based, human; conditions: 48 h, SRB
How it was run: as §2

HT-29 cells = assay: Cell growth inhibition bioassay (sulforhodamine B); assay type: cell-based, human; conditions: 48 h, SRB
How it was run: as §1

DU145 cells = assay: Cell growth inhibition bioassay (sulforhodamine B); assay type: cell-based, human; conditions: 48 h, SRB
How it was run: as §2

K562 cells = assay: Cell growth inhibition bioassay (sulforhodamine B); assay type: cell-based, human; conditions: 48 h, SRB
How it was run: as §1

M-14 cells = assay: Cell growth inhibition bioassay (sulforhodamine B); assay type: cell-based, human; conditions: 48 h, SRB
How it was run: as §1

VERO cells [3] = assay: Cytotoxicity on VERO cells (MTT), anti-T. cruzi study; conditions: Lab B
[4] = target: Trypanosoma cruzi (Tulahuen C4); assay: In vitro anti-T. cruzi activity (β-galactosidase CPRG colorimetric assay in VERO monolayer); assay type: cell-based; conditions: for IC50: Trypanosoma cruzi, TULAHUEN, Vero
[5] = Toxicity to peritoneal macrophages (Trypan Blue count); assay type: cell-based, BALB/C mouse; conditions: BALB/C, mouse, Cytotoxicity Macrophages IC50
[6] = test system: axenic amastigotes of L. amazonensis (strain MHOM/BR/76/LTB-012); assay: microbe, parasite or virus in culture; conditions: Leishmania amazonensis, read-out: L. amazonensis IC50
[7] = Cytotoxicity VERO cell (Table 6); conditions: African green monkey, VERO cells
[8] = Cytotoxicity on VERO cells (MTT), anti-T. cruzi study; conditions: African green monkey, VERO cells, Cytotoxicity VERO Lab B, Lab B
[9] = test system: non-replicating persistence Mycobacterium tuberculosis (NRP-TB); assay: Low oxygen recovery assay (LORA); assay type: cell-based; conditions: value in brackets

| SMILES | pIC50 (peritoneal macrophages) | MIC MABA (M. tuberculosis H37Rv; aerobic, 7 days, H37Rv) [µg/mL] | pIC50 [1] | GI50 in indicated cell line: 3T3 (3T3 cells) [µg/mL] | Cytotoxicity VERO cell (VERO cell) [µg/mL] | GI50 in indicated cell line: VERO (VERO cells [2]) [µg/mL] | GI50 in indicated cell line: MCF-7 (MCF-7 cells) [µg/mL] | GI50 in indicated cell line: H460 (H460 cells) [µg/mL] | GI50 in indicated cell line: HT-29 (HT-29 cells) [µg/mL] | GI50 in indicated cell line: DU145 (DU145 cells) [µg/mL] | GI50 in indicated cell line: K562 (K562 cells) [µg/mL] | GI50 in indicated cell line: M-14 (M-14 cells) [µg/mL] | T. cruzi IC50 Lab A ([4]; Lab A) [µg/mL] | also measured |
| --- | --- | --- | --- | --- | --- | --- | --- | --- | --- | --- | --- | --- | --- | --- |
| Fc1ccc(C=NNc2ncnc3sc4c(c23)CCCC4)cc1 [II-26] | 5.51 | 23.2 (≈ 71.1 µM) | 5.49 | 6.7 (≈ 20.5 µM) | 12.8 | 4.2 (≈ 12.9 µM) | 2.4 (≈ 7.35 µM) | 3.1 (≈ 9.5 µM) | 3.4 (≈ 10.4 µM) | 4.5 (≈ 13.8 µM) | 2.9 (≈ 8.88 µM) | 5.7 (≈ 17.5 µM) | 1.9 | Cytotoxicity VERO Lab B (VERO cells [3]): 6.0; T. cruzi IC50 Lab B ([4]; Lab B): 6.0 µg/mL |
| CC(C)(C)C=NNc1ncnc2sc3c(c12)CCCC3 [II-36] | 4.29 | 86.3 (≈ 299 µM) | 4.49 | 2.1 (≈ 7.28 µM) | 29.6 | 9.7 (≈ 33.6 µM) | 7.5 (≈ 26 µM) | 7.1 (≈ 24.6 µM) | 9.5 (≈ 32.9 µM) | 7.2 (≈ 25 µM) | 7.9 (≈ 27.4 µM) | 9.4 (≈ 32.6 µM) | 5.3 | – |
| C/C(=N/Nc1ncnc2sc3c(c12)CCCC3)c1ccccc1 [II-47] | – | – | – | – | – | – | – | – | – | – | – | – | – | IC50 at 48 h [5]: 51.3 µM; MIC (M. tuberculosis H37Rv; Mycobacterium tuberculosis, 168 h, aerobic, 7 days, H37Rv): 23.4 µg/mL (≈ 72.6 µM); Selectivity Index H37Rv (M. tuberculosis H37Rv; VERO vs MABA MIC): 1.4; Selectivity Index [1]: 5.6; GI50 (3T3 cells; Mus musculus, NIH3T3, read-out: GI50 in indicated cell line: 3T3): 1.7 µg/mL (≈ 5.27 µM); pIC50 [6]: 5.04; IC50 [7]: 32.3 µg/mL (≈ 100 µM); GI50 (VERO cells [2]; Chlorocebus sabaeus, Vero, read-out: GI50 in indicated cell line: VERO): 9.3 µg/mL (≈ 28.8 µM); GI50 (MCF-7 cells; Homo sapiens, MCF7, read-out: GI50 in indicated cell line: MCF-7): 5.3 µg/mL (≈ 16.4 µM); GI50 (H460 cells; Homo sapiens, NCI-H460, read-out: GI50 in indicated cell line: H460): 5.1 µg/mL (≈ 15.8 µM); GI50 (HT-29 cells; Homo sapiens, HT-29, read-out: GI50 in indicated cell line: HT-29): 7.1 µg/mL (≈ 22 µM); GI50 (DU145 cells; Homo sapiens, DU-145, read-out: GI50 in indicated cell line: DU145): 5.2 µg/mL (≈ 16.1 µM); GI50 (K562 cells; Homo sapiens, K562, read-out: GI50 in indicated cell line: K562): 3.5 µg/mL (≈ 10.9 µM); GI50 (M-14 cells; Homo sapiens, M14, read-out: GI50 in indicated cell line: M-14): 6.4 µg/mL (≈ 19.8 µM); IC50 [8]: 4 µg/mL (≈ 12.4 µM); MIC ([9]; Mycobacterium tuberculosis, anaerobic 10 days, 28 hour recovery): 2.8 µg/mL (≈ 8.68 µM); Selectivity Index LORA ([9]; VERO vs LORA MIC): 11.5; Selectivity Index Lab B ([4]; IC50, VERO/IC50, T. cruzi, Lab B): 0.9; IC50 ([4]; Lab A, read-out: T. cruzi IC50 Lab A): 1.3 µg/mL (≈ 4.03 µM); IC50 ([4]; Lab B, read-out: T. cruzi IC50 Lab B): 4.4 µg/mL (≈ 13.6 µM) |
